Results as given in article PMC7468108 (Communications Biology, 2020).

What was measured:
hIAPP = target: T1, hIAPP (Homo sapiens, UniProt P10997); test: ThT-binding assay, inhibition of hIAPP aggregation; type: biochemical; conditions: molar ratios 5:1, 1:1, 1:5
T1 construct: hIAPP is a 37-amino acid neuroendocrine peptide hormone; purchased Peptide 2.0 (USA)
T1 sequence (P10997 34-70 limits assumed): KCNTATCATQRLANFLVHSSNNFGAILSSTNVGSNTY
Protocol: A similar inhibitory effect by the hybrid molecules was found toward hIAPP aggregation. […] Upon co-incubation of hIAPP with the hybrid molecules, a dose-response inhibition of hIAPP fibril formation was observed (Fig. 2d, e and Supplementary Fig. 3). […] Also, for IAPP, the marginally stronger inhibitory effect of WGalNAc was statistically significant (Supplementary Fig. 2b).
(§1) The resulting thin films were dissolved in PBS (100 mM, pH 7.4) and sonicated for 5 min to get a stock concentration of 50 µM, which immediately diluted to required concentration for an experiment. Stock solutions of ThT (4 mM in PBS) and hybrid molecules (10 mM in PBS) were prepared. All the stock solutions were diluted according to the requirement.
The experiment was performed according to the previous report. […] Kinetics fluorescence data were collected at 37 °C in triplicate using Infinite M200 microplate reader (Tecan, Switzerland), with measurements acquired at 15 min intervals. Excitation and emission wavelengths were set at 440 nm and 485 nm, respectively.

Aβ42 = target: T2, Aβ42 (Homo sapiens, UniProt P05067); test: ThT-binding assay, inhibition of Aβ42 aggregation; type: biochemical; conditions: any molar ratio (5:1, 1:1, 1:5)
T2 construct: purchased rPeptide (USA)
Protocol: ThT is known to intercalate within the amyloid fibrils resulting in fluorescence emission proportionate to the amyloid growth.
as §1
The experiment was performed according to the previous report. […] […] Excitation and emission wavelengths were set at 440 nm and 485 nm, respectively.

T2 sequence (P05067 672-713 limits assumed): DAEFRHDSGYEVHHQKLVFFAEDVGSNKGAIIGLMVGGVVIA

| Structure (SMILES) | inhibition of hIAPP fibril formation (ThT), in words (hIAPP) | inhibition of Aβ42 fibril formation (ThT), in words (Aβ42) |
| --- | --- | --- |
| N[C@@H]1O[C@H](CO)[C@H](O)[C@H](O)[C@H]1O [galactosylamine, 1-amino-1-deoxy-β-D-galactose] | No inhibitory effect | no inhibition effect |
| N[C@@H](Cc1c[nH]c2ccccc12)C(=O)O [tryptophan] | No inhibitory effect | no inhibition effect |
